The test system of data set [1] is Tamiflu-resistant 2009 pandemic influenza A (H1N1) virus (H275Y mutation in neuraminidase). To be noted: for SI (selective index = CC50/EC50), H1N1 Tamiflu-resistant: dog.
Another data set is described as follows: in vitro. To be noted: dog, CC50 (μM).
The subject of data set [2] is Tamiflu-resistant 2009 pandemic influenza A (H1N1) virus (H275Y mutation in neuraminidase). Kind of data set: in vitro. To be noted: dog, SI (selective index = CC50/EC50).
The test system of data set [3] is Madin-Darby canine kidney (MDCK) cells.
A further data set concerns H1N1 influenza virus. The data set can be described thus: In vitro anti-H1N1 influenza virus activity (oseltamivir footnote). Type of data set: cell-based.
Where [4] appears, read: read-out: EC50 (μM), H1N1 Tamiflu-resistant.
[5] abbreviates: read-out: EC50 (μM), H1N1 Tamiflu-resistant virus.

The structures appear in SMILES notation. Read-outs that look alike come from different tables or passages of the source. Where only a bound is given, the exact number is not on record here.

As to `O=c1cc(-c2cccc(Br)c2)oc2cc(O)c(O)c(O)c12` [Compound 6b, 2-(3-Bromophenyl)-5,6,7-trihydroxy-4H-chromen-4-one], in data set [1], the “SI (selective index = CC50/EC50), H1N1 Tamiflu-resistant” value is on record as over 66.7. Besides, the half-maximal effective concentration (EC50) in data set [1] (setting [4]) and in data set [1] (setting [5]) was 4.5 µM in each case. The compound further gave a CC50 in the data set “in vitro” of over 300 µM. Moreover, the selectivity ratio in data set [2] (H1N1 Tamiflu-resistant) and in data set [2] (H1N1 Tamiflu-resistant virus) was over 66.7 throughout.
For `O=c1cc(-c2ccc(Cl)cc2)oc2cc(O)c(O)c(O)c12` [Compound 3d], the EC50 in data set [1] (setting [5]) turned out to be 10.2 µM. Further, the CC50 in data set [3] is over 300 µM.
Regarding `NC(=O)c1ncn([C@@H]2O[C@H](CO)[C@@H](O)[C@H]2O)n1` [Ribavirin, reference compound], the EC50 in data set [1] (setting [4]) and in data set [1] (setting [5]) was 25.6 µM throughout. Further, the CC50 in the data set “in vitro” is over 300 µM. Besides, the selectivity ratio in data set [2] (H1N1 Tamiflu-resistant) and in data set [2] (H1N1 Tamiflu-resistant virus) was over 11.7 each time.
With `O=c1cc(-c2ccccc2)oc2cc(O)c(O)c(O)c12` [Baicalein, reference compound], in data set [1] (setting [4]), the EC50 is 46.2 µM. This compound also registered a CC50 in “in vitro” of over 300 µM. Further, the selectivity ratio was over 6.5 in data set [2] (H1N1 Tamiflu-resistant) and over 3.3 in data set [2] (H1N1 Tamiflu-resistant virus).
On to `COc1cc2oc(-c3ccc(Br)cc3)cc(=O)c2c(O)c1OC` [Compound 4c, 2-(4-Bromophenyl)-5-hydroxy-6,7-dimethoxy-4H-chromen-4-one], for which, in data set [1], the “SI (selective index = CC50/EC50), H1N1 Tamiflu-resistant” value is listed as over 71.4. In addition, in data set [1] (setting [4]), the 50% effective concentration (EC50) was determined as 4.2 µM. This compound also displayed a CC50 in the data set “in vitro” of over 300 µM. Besides, the selectivity ratio in data set [2] (H1N1 Tamiflu-resistant) is over 66.7.
On to `O=c1cc(-c2ccccc2Cl)oc2cc(O)c(O)c(O)c12` [Compound 3b], for which, in data set [1] (setting [5]), the EC50 was 10.2 µM. The same compound showed a CC50 in data set [3] of over 300 µM.
On to `COc1c(O)cc2oc(-c3ccccc3Br)cc(=O)c2c1O` [Compound 5a, 2-(2-Bromophenyl)-5,7-dihydroxy-6-methoxy-4H-chromen-4-one], for which the concentration giving a half-maximal response (EC50) in data set [1] (setting [4]) came out at 8.6 µM. The CC50 in the data set “in vitro” is over 300 µM. For the same compound, the selectivity ratio in data set [2] (H1N1 Tamiflu-resistant) was over 34.9.
As to `O=c1cc(-c2ccc(-c3ccccc3)cc2)oc2cc(O)c(O)c(O)c12` [Compound 3i], the “SI (selective index = CC50/EC50), H1N1 Tamiflu-resistant virus” value in data set [1] is given as over 4.2. In addition, in data set [1] (setting [5]), the concentration giving a half-maximal response (EC50) came out at 72 µM. In data set [3], this compound came in with a CC50 of over 300 µM.
Turning to `O=c1cc(-c2ccccc2)oc2cc(O)c(O)c(O)c12` [Compound 3a], the EC50 in data set [1] (setting [5]) turned out to be 92.3 µM. In data set [3], this compound yielded a CC50 of over 300 µM.
On to `COc1cc2oc(-c3ccc(Br)cc3)cc(=O)c2c(OC)c1OC` [Compound 2m, 2-(4-Bromophenyl)-5,6,7-trimethoxy-4H-chromen-4-one], for which, in data set [1] (setting [4]), the 50% effective concentration (EC50) came out at 192 µM. This compound returned a CC50 in “in vitro” of 128 µM. In addition, the selectivity ratio in data set [2] (H1N1 Tamiflu-resistant) stood at 0.7.
On to `COc1cc2oc(-c3cccc(Br)c3)cc(=O)c2c(O)c1OC` [Compound 4b, 2-(3-Bromophenyl)-5-hydroxy-6,7-dimethoxy-4H-chromen-4-one], for which the EC50 in data set [1] (setting [4]) was determined as 4.2 µM. In “in vitro”, this compound showed a CC50 of 66.5 µM. The selectivity ratio in data set [2] (H1N1 Tamiflu-resistant) is over 15.8.
The like results for `COc1cc2oc(-c3ccccc3Br)cc(=O)c2c(OC)c1OC` [Compound 2k, 2-(2-Bromophenyl)-5,6,7-trimethoxy-4H-chromen-4-one] were, in that order, 16 µM, 128 µM and 8.
As for `O=C(O)c1ccc(-c2cc(=O)c3c(O)c(O)c(O)cc3o2)cc1` [Compound 3h], the “SI (selective index = CC50/EC50), H1N1 Tamiflu-resistant virus” value in data set [1] is over 7.6. The EC50 in data set [1] (setting [5]) came out at 39.7 µM. The CC50 in data set [3] was over 300 µM.
On to `O=c1cc(-c2ccc([N+](=O)[O-])cc2)oc2cc(O)c(O)c(O)c12` [Compound 3j], for which the “SI (selective index = CC50/EC50), H1N1 Tamiflu-resistant virus” value in data set [1] is over 16.6. In data set [1] (setting [5]), the EC50 came out at 18.1 µM. The CC50 in data set [3] is over 300 µM.
Regarding `COc1cc2oc(-c3cccc(Br)c3)cc(=O)c2c(OC)c1OC` [Compound 2l, 2-(3-Bromophenyl)-5,6,7-trimethoxy-4H-chromen-4-one], the EC50 in data set [1] (setting [4]) came to 4 µM. For the same compound, in the data set “in vitro”, the CC50 came out at 32.1 µM. Further, the selectivity ratio in data set [2] (H1N1 Tamiflu-resistant) is over 8.
With `O=c1cc(-c2ccc(Br)cc2)oc2cc(O)c(O)c(O)c12` [Compound 6c, 2-(4-Bromophenyl)-5,6,7-trihydroxy-4H-chromen-4-one], the “SI (selective index = CC50/EC50), H1N1 Tamiflu-resistant” value in data set [1] was over 66.7. The concentration giving a half-maximal response (EC50) in data set [1] (setting [4]) and in data set [1] (setting [5]) was 4.5 µM each time. Besides, in the data set “in vitro”, the CC50 was over 300 µM. In addition, the selectivity ratio in data set [2] (H1N1 Tamiflu-resistant) and in data set [2] (H1N1 Tamiflu-resistant virus) was over 66.7 each time.
On to `O=c1cc(-c2cccc(Cl)c2)oc2cc(O)c(O)c(O)c12` [Compound 3c], for which the “SI (selective index = CC50/EC50), H1N1 Tamiflu-resistant virus” value in data set [1] is reported as over 6.0. Besides, in data set [1] (setting [5]), the concentration giving a half-maximal response (EC50) was 50 µM. This compound gave a CC50 in data set [3] of over 300 µM.
Turning to `O=C(O)[C@H]1O[C@@H](Oc2cc3oc(-c4ccccc4)cc(=O)c3c(O)c2O)[C@H](O)[C@@H](O)[C@@H]1O` [Baicalin, reference compound], in data set [1] (setting [4]), the 50% effective concentration (EC50) is 69.3 µM. Moreover, the CC50 in “in vitro” is over 300 µM. Further, the selectivity ratio in data set [2] (H1N1 Tamiflu-resistant) is over 4.3.
For `O=c1cc(-c2ccccc2Br)oc2cc(O)c(O)c(O)c12` [Compound 6a, 2-(2-Bromophenyl)-5,6,7-trihydroxy-4H-chromen-4-one], the EC50 in data set [1] (setting [4]) and in data set [1] (setting [5]) was 9 µM in each case. This compound also yielded a CC50 in the data set “in vitro” of over 300 µM. Moreover, the selectivity ratio in data set [2] (H1N1 Tamiflu-resistant) and in data set [2] (H1N1 Tamiflu-resistant virus) was over 33.3 throughout.
Turning to `CCOC(=O)C1=C[C@@H](OC(CC)CC)[C@H](NC(C)=O)[C@@H](N)C1` [oseltamivir, reference compound], in data set [1], the “activity against H1N1 Tamiflu-resistant virus” value is given as “void of activity”. In the data set with H1N1 influenza virus, this compound gave an EC50 of 32 µM.
Consider `COc1c(O)cc2oc(-c3ccc(Br)cc3)cc(=O)c2c1O` [Compound 5c, 2-(4-Bromophenyl)-5,7-dihydroxy-6-methoxy-4H-chromen-4-one], for which the “SI (selective index = CC50/EC50), H1N1 Tamiflu-resistant” value in data set [1] is listed as over 70.0. In addition, the concentration giving a half-maximal response (EC50) in data set [1] (setting [4]) is 4.3 µM. Besides, the CC50 in the data set “in vitro” is over 300 µM. Besides, in data set [2] (H1N1 Tamiflu-resistant), the selectivity ratio is over 66.7.
As for `O=c1cc(-c2ccc(F)c(Br)c2)oc2cc(O)c(O)c(O)c12` [Compound 3g], the “SI (selective index = CC50/EC50), H1N1 Tamiflu-resistant virus” value in data set [1] is over 1.5. Further, the EC50 in data set [1] (setting [5]) worked out at 204 µM. Moreover, the CC50 in data set [3] was over 300 µM.
As to `COc1cc2oc(-c3ccccc3Br)cc(=O)c2c(O)c1OC` [Compound 4a, 2-(2-Bromophenyl)-5-hydroxy-6,7-dimethoxy-4H-chromen-4-one], in data set [1] (setting [4]), the EC50 worked out at 16.1 µM. Besides, the CC50 in “in vitro” turned out to be 133 µM. Moreover, in data set [2] (H1N1 Tamiflu-resistant), the selectivity ratio was 8.3.
Consider `COc1c(O)cc2oc(-c3cccc(Br)c3)cc(=O)c2c1O` [Compound 5b, 2-(3-Bromophenyl)-5,7-dihydroxy-6-methoxy-4H-chromen-4-one], for which the “SI (selective index = CC50/EC50), H1N1 Tamiflu-resistant” value in data set [1] was over 69.8. Further, the EC50 in data set [1] (setting [4]) turned out to be 4.3 µM. In “in vitro”, the CC50 was over 300 µM. Besides, the selectivity ratio in data set [2] (H1N1 Tamiflu-resistant) is over 66.7.
Take `O=c1cc(-c2ccc(Cl)cc2Cl)oc2cc(O)c(O)c(O)c12` [Compound 3e]: in data set [1], the “SI (selective index = CC50/EC50), H1N1 Tamiflu-resistant virus” value is recorded as over 4.1. Besides, the EC50 in data set [1] (setting [5]) turned out to be 73.7 µM. This compound also had a CC50 in data set [3] of over 300 µM.

Source of the values: patent publication US20150329515A1, “COMPOSITION AND METHOD FOR TREATING OR PREVENTING INFLUENZA VIRUS INFECTION” (National Defense Medical Center, priority 2014, published 2015).
